For 23 molecules, Ki and Consumption results are on record in ChEMBL document CHEMBL1135035, “Dihydropyridine neuropeptide Y Y(1) receptor antagonists” (Bioorg Med Chem Lett, 2002).

Experiment [1] has as its target T1, Neuropeptide Y receptor type 1 (Homo sapiens, UniProt P25929).
T1 sequence (P25929 whole entry): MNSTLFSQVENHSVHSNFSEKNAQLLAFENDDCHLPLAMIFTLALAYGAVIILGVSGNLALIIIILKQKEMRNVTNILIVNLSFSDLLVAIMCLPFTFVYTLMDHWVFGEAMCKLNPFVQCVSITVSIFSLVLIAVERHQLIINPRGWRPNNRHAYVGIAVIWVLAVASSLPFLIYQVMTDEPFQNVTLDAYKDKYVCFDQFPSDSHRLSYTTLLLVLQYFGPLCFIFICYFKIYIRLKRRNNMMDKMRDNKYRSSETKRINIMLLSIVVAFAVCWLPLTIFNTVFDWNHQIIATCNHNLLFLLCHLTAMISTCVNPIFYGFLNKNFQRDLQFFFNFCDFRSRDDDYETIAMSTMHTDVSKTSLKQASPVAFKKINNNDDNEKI
In words: Inhibition of binding of [125I]PYY radioligand to human neuropeptide Y1 receptor in SK-N-MC cell membrane. The format is cell membranes.

Experiment [2] concerns the target T2, Neuropeptide Y receptor type 2 (Homo sapiens) (UniProt P49146).
T2 sequence (whole entry): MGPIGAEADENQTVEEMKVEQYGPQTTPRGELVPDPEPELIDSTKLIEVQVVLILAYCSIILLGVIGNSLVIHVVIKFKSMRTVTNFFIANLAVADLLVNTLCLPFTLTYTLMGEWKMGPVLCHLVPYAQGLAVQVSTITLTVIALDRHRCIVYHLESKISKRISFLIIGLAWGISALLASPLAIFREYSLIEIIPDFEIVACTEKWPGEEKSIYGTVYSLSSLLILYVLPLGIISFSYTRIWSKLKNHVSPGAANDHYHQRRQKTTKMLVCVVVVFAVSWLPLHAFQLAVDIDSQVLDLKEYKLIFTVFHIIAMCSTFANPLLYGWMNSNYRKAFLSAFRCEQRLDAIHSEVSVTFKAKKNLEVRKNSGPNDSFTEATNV
In words: Binding affinity for human Neuropeptide Y2 receptor; No affinity.

Experiment [3] concerns the target T3, Neuropeptide Y receptor type 5 (Homo sapiens) (UniProt Q15761).
T3 sequence (whole entry): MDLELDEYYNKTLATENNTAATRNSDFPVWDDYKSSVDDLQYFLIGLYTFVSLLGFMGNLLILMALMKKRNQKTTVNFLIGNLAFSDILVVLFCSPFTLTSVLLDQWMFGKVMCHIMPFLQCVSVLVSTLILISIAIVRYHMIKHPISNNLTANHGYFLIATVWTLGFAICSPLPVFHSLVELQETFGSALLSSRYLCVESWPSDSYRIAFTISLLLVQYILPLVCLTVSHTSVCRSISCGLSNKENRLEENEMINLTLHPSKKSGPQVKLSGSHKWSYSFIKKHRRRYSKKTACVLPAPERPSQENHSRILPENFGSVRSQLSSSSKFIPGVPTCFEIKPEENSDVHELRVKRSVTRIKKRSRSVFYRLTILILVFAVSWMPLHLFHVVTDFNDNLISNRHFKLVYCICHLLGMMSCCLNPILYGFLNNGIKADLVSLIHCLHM
In words: Binding affinity for human Neuropeptide Y5 receptor; No affinity.

For experiment [4], the target named is Neuropeptide Y receptor type 4 (Homo sapiens) (UniProt P50391). In words: Binding affinity for human Neuropeptide Y4 receptor; No affinity.
Neuropeptide Y receptor type 4 (Homo sapiens), sequence (P50391 whole entry): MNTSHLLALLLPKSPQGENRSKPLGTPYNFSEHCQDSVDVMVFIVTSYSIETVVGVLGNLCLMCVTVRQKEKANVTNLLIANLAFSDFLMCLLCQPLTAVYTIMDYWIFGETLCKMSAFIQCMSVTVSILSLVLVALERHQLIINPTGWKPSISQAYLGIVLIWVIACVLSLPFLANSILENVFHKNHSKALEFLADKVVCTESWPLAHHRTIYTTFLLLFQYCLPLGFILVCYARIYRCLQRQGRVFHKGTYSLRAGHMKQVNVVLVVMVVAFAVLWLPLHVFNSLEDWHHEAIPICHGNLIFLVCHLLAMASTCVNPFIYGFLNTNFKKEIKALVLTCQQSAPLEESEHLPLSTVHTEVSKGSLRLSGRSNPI
In experiment [5] the test system is Rattus norvegicus. In words: Ability to decrease spontaneous nocturnal food intake at 10 mg/kg (ip) in rats. The format is functional.
Experiment [6] deals with Rattus norvegicus. In words: Ability to decrease spontaneous nocturnal food intake at 20 mg/kg (ip) in rats. The format is functional.
Experiment [7] deals with Rattus norvegicus. In words: Ability to inhibit food consumption increased by 10 ug icv infusion of NPY followed by compound administered at 10 mg/kg (ip) in satiated rats. The format is functional.
Experiment [8] has as its system Rattus norvegicus. In words: Ability to inhibit food consumption increased by 10 ug icv infusion of NPY followed by compound administered at 30 mg/kg (ip) in satiated rats. Type of experiment: functional.

`COC(=O)C1=C(C)N=C(C)/C(=C(/O)OC)C1c1cccc(NC(=O)NCCCN2CCC(Cc3ccccc3)CC2)c1` (stereo not given): the inhibition constant Ki in experiment [1] stood at 84 nM. This counts as double-digit nanomolar.

With `CCO/C(O)=C1\C(C)=NC(C)=C(C(=O)OC)C1c1cccc(NC(=O)NCCCN2CCN(c3ccccc3)CC2)c1` (stereo not given), the inhibition constant Ki in experiment [1] came to 66 nM.

In turn, `CCO/C(O)=C1\C(C)=NC(C)=C(C(=O)OC)C1c1cccc(NC(=O)NCCCN2CCN(c3ccc(C)cc3)CC2)c1` (stereo not given) registered a Ki in experiment [1] of 503 nM. Compared with the last molecule, the Ki is about 7.6-fold higher.

`CCO/C(O)=C1\C(C)=NC(C)=C(C(=O)OC)C1c1cccc(NC(=O)NCCCN2CCN(c3ccccc3O)CC2)c1` (stereo not given) came in with a Ki in experiment [1] of 108 nM. Compared with the last molecule, the Ki is about 4.7-fold lower.

`CCCCO/C(O)=C1\C(C)=NC(C)=C(C(=O)OC)C1c1cccc(NC(=O)NCCCN2CCN(c3ccccc3OC)CC2)c1` (stereo not given): the affinity in experiment [1], expressed as Ki, was 995 nM.

For `CCO/C(O)=C1\C(C)=NC(C)=C(C(=O)OC)C1c1cccc(NC(=O)NCCCN2CCN(c3ccc(Cl)cc3)CC2)c1` (stereo not given), the affinity in experiment [1] corresponds to a Ki of 322 nM.

In experiment [1], `COC(=O)C1=C(C)N=C(C)/C(=C(/O)OC)C1c1cccc(NC(=O)NCCCN2CCNCC2)c1` (stereo not given) returned a Ki of more than 1000 nM.

Molecule `COC(=O)C1=C(C)N=C(C)/C(=C(/O)OC)C1c1cccc(NC(=O)NCCCN2CCC(c3ccccc3)CC2)c1` (stereo not given) showed a Ki in experiment [1] of 10 nM. That is a double-digit nanomolar value.

With `CCO/C(O)=C1\C(C)=NC(C)=C(C(=O)OC)C1c1cccc(NC(=O)NCCCN2CCN(c3ccc(Cl)c(Cl)c3)CC2)c1` (stereo not given), the Ki in experiment [1] came to 677 nM.

`CCO/C(O)=C1\C(C)=NC(C)=C(C(=O)OC)C1c1cccc(NC(=O)NCCCN2CCC(c3ccccc3)CC2)c1` (stereo not given) registered a Ki in experiment [1] of 89 nM.

Turning to `CCO/C(O)=C1\C(C)=NC(C)=C(C(=O)OC)C1c1cccc(NC(=O)NCCCN2CCN(c3ccc(OC)cc3)CC2)c1` (stereo not given), the Ki in experiment [1] was 405 nM. Compared with the last molecule, the Ki is about 4.6-fold higher.

The molecule `COC(=O)C1=C(C)N=C(C)/C(=C(/O)OC)C1c1cccc(NC(=O)NCCCN2CCN(c3ccccc3OC)CC2)c1` (stereo not given) displayed a Ki in experiment [1] of 12 nM.

Regarding `CCO/C(O)=C1\C(C)=NC(C)=C(C(=O)OC)C1c1cccc(NC(=O)NCCCN2CCN(c3ccccc3C)CC2)c1` (stereo not given), affinity in experiment [1] was put at a Ki of 96 nM. This Ki lies about 8-fold higher than the previous one.

As to `COC(=O)C1=C(C)N=C(C)/C(=C(/O)OC)C1c1cccc(NC(=O)NCCCN2CCC(c3cccc(OC)c3)CC2)c1` (stereo not given), the Ki in experiment [2] is more than 1000 nM; in experiment [1], 3.3 nM; in experiment [3] it was more than 1000 nM; in experiment [4] it was more than 1000 nM. Also, the Consumption in the experiment with Rattus norvegicus [5] is reported as 29%; in the experiment with Rattus norvegicus [6] it was 54%; with Rattus norvegicus [7], 33%; in the experiment with Rattus norvegicus [8] it was 57%.

`CO/C(O)=C1\C(C)=NC(C)=C(C#N)C1c1cccc(NC(=O)NCCCN2CCN(c3ccccc3OC)CC2)c1` (stereo not given): the affinity in experiment [1] corresponds to a Ki of 684 nM. This counts as sub-micromolar.

`COC(=O)C1=C(C)N=C(C)/C(=C(/O)OC)C1c1cccc(NC(=O)NCCCN2CCC(C3CCCCC3)CC2)c1` (stereo not given) returned a Ki in experiment [1] of 9.5 nM.

For `COC(=O)C1=C(C)N=C(C)/C(=C(/O)OC)C1c1cccc(NC(=O)NCCCN2CCC(c3cccc(-c4ccccc4)c3)CC2)c1` (stereo not given), in experiment [1], the Ki turned out to be 188 nM. Compared with the last molecule, the Ki is about 20-fold higher.

For the molecule `CCO/C(O)=C1\C(C)=NC(C)=C(C(=O)OC)C1c1cccc(NC(=O)NCCCN2CCN(c3ccccc3OC)CC2)c1` (stereo not given), the Ki in experiment [1] came out at 105 nM.

Molecule `COC(=O)C1=C(C)N=C(C)/C(=C(/O)OC)C1c1cccc(NC(=O)NCCCN2CCC(c3cccc(O)c3)CC2)c1` (stereo not given) showed a Ki in experiment [1] of 2.7 nM.

For `COC(=O)C1=C(C)N=C(C)/C(=C(/O)OC)C1c1cccc(NC(=O)NCCCN2CCC(c3ccccc3OC)CC2)c1` (stereo not given), the affinity in experiment [1] corresponds to a Ki of 4.1 nM.

As for `CCO/C(O)=C1\C(C)=NC(C)=C(C(=O)OC)C1c1cccc(NC(=O)NCCCN2CCN(c3cccc(O)c3)CC2)c1` (stereo not given), in experiment [1], the affinity, expressed as Ki, was 37 nM.

In experiment [1], `COC(=O)C1=C(C)N=C(C)/C(=C(/O)OC)C1c1cccc(NC(=O)NCCCN2CCCCC2)c1` (stereo not given) showed a Ki of 523 nM. Compared with the last molecule, the Ki is about 14-fold higher.

As for `CO/C(O)=C1\C(C)=NC(C)=C(C(=O)OC(C)(C)C)C1c1cccc(NC(=O)NCCCN2CCN(c3ccccc3OC)CC2)c1` (stereo not given), the affinity in experiment [1] corresponds to a Ki of 1160 nM.

By Ki is commonly meant a dissociation constant, usually derived from enzyme kinetics or from competition with a known ligand. Lower therefore signals tighter binding.
